From patent publication US20230310388A1, “Methods and Compositions for Treating Fungal Infections” (Neoculi Pty Ltd, priority 2020, published 2023)
Where “and” joins values, the source holds several entries; their conditions need not be identical. Identical values can stand only once.

Experiments:
Candida albicans [1] = test: CLSI broth microdilution MIC (Example 4); format: cell-based; conditions: for antifungal activity against the two isolates of Candida albicans: summary in words
Method: (§1) Antifungal minimum inhibitory concentration (MIC) testing was undertaken as recommended by the CLSI. Briefly, antifungal susceptibility tests were performed for amphotericin B, robenidine (NCL812) and robenidine (NCL) analogs (NCL004, NCL020, NCL023, NCL024, NCL062, NCL094, NCL097, NCL110, NCL113, NCL114, NCL115, NCL135, NCL139, NCL180, NCL181, NCL195, NCL219, NCL220, NCL228, NCL247, NCL250, NCL259, NCL260, NCL263, NCL265, NCL269, NCL274) by standard broth microdilution method (CLSI) in RPMI 1640. Various concentrations (ranging from high to low) of the selected compounds were prepared in RPMI 1640 medium by double dilution in 96-well microtitre plates. Each well contained an inoculum of approximately 2×10^3 cells/mL. The wells without addition of drugs served as negative (no inoculum) and positive (inoculum only) growth controls. Microtitre plates were incubated at 35° C. for 24-48 hours. […] Antifungal MICs were determined for each isolate in duplicate; if the values obtained were different, the MIC test was repeated a third time.

Cryptococcus neoformans [2] = test: CLSI broth microdilution MIC (Example 4); format: cell-based
Method: as §1

Candida albicans [3] = test: CLSI broth microdilution MIC (Example 5); format: cell-based
Method: as §1, with “robenidine” for “robenidine (NCL)”, “(NCL23, NCL24, NCL97,” for “(NCL004, NCL020, NCL023, NCL024, NCL062, NCL094, NCL097, NCL110,”, “NCL113,” for “NCL113, NCL114,”, “NCL115,” for “NCL115, NCL135, NCL139, NCL180, NCL181,”, “NCL220,” for “NCL220, NCL228, NCL247, NCL250,”, “NCL265)” for “NCL260, NCL263, NCL265, NCL269, NCL274)”

Cryptococcus neoformans [4] = test: CLSI broth microdilution MIC (Example 5); format: cell-based
Method: as §1, with “robenidine” for “robenidine (NCL)”, “(NCL23, NCL24, NCL97,” for “(NCL004, NCL020, NCL023, NCL024, NCL062, NCL094, NCL097, NCL110,”, “NCL113,” for “NCL113, NCL114,”, “NCL115,” for “NCL115, NCL135, NCL139, NCL180, NCL181,”, “NCL220,” for “NCL220, NCL228, NCL247, NCL250,”, “NCL265)” for “NCL260, NCL263, NCL265, NCL269, NCL274)”

Candida albicans [5] = test: CLSI broth microdilution MIC (Example 6); format: cell-based
Method: (§2) Antifungal minimum inhibitory concentration (MIC) testing was undertaken as recommended by the CLSI (1). Briefly, antifungal susceptibility tests were performed for amphotericin B, robenidine (NCL812) and 10 robenidine analogs (NCL023, NCL024, NCL097, NCL113, NCL115, NCL195, NCL219, NCL220, NCL259, NCL265) by standard broth microdilution method (CLSI) in RPMI 1640. Various concentrations (ranging from high to low) of the selected compounds were prepared in RPMI 1640 medium by double dilution in 96-well microtitre plates. Each well contained an inoculum of approximately 2×10^3 cells/mL. The wells without addition of drugs served as negative (no inoculum) and positive (inoculum only) growth controls. Microtitre plates were incubated at 35° C. for 24-48 hours. […] Antifungal MICs were determined for each isolate in duplicate; if the values obtained were different, the MIC test was repeated a third time.

Cryptococcus neoformans [6] = test: CLSI broth microdilution MIC (Example 6); format: cell-based
Method: as §2

C. gattii = test: CLSI broth microdilution MIC (Example 6); format: cell-based, Cryptococcus gattii
Method: as §2

[7] = test system: Candida albicans ATCC14053; test: Broth micro-dilution screen at 16 μg/mL and MIC (Example 9); format: cell-based; conditions: for MIC: C. albicans ATCC14053, test range 0.25-64 μg/mL, duplicate; for Screen at 16 μg/mL: single concentration 16 μg/mL, Growth or No growth of C. albicans ATCC14053
Method: The antifungal activity of 201 NCL analogs against Candida albicans ATCC14053 in vitro was investigated. A broth micro-dilution method was used, according to CLSI guidelines as described. NCL analogs were dissolved in DMSO and originally screened at a single concentration of 16 μg/mL.

[8] = clinical isolate C. albicans 12-93301752 Azole Resistant
[9] = clinical isolate C. albicans 14-90045999 Azole Resistant
[10] = clinical isolate C. albicans 15-45171061
[11] = clinical isolate C. albicans 15-91329871
[12] = clinical isolate C. albicans 16-24136919 Azole Resistant
[13] = clinical isolate C. albicans 16-46177400
[14] = clinical isolate C. albicans 16-90050810
[15] = clinical isolate C. albicans 16-90054237
[16] = clinical isolate C. albicans 18-144-00196
[17] = clinical isolate C. albicans 18-148-08188 Azole Resistant
[18] = human clinical isolate C. neoformans serotype A/D hybrid
[19] = human clinical isolate C. neoformans var grubii 16-90050434
[20] = human clinical isolate C. neoformans var grubii 17-90028233
[21] = human clinical isolate C. neoformans var grubii 17-93996464
[22] = human clinical isolate C. neoformans var grubii 17-93996964
[23] = human clinical isolate C. gatti 17-90232099
[24] = human clinical isolate C. gattii 16-90050373
[25] = human clinical isolate C. gattii 17-90028211
[26] = human clinical isolate C. gattii 17-90028217
[27] = human clinical isolate C. gattii 17-90028242

| Structure (SMILES) | MIC at 24-48 hours (Candida albicans [1]; Candida albicans ATCC 90028) [µg/mL] | MIC at 24-48 hours (Candida albicans [1]; Candida albicans SA3) [µg/mL] | MIC at 24-48 hours (Cryptococcus neoformans [2]; Cryptococcus neoformans SA1) [µg/mL] | MIC at 24-48 hours (Cryptococcus neoformans [2]; Cryptococcus neoformans SA2) [µg/mL] | MIC (Candida albicans [3]; C. albicans SA3) [µg/mL] | MIC (Candida albicans [3]; Candida albicans ATCC 90028) [µg/mL] | MIC (Candida albicans [3]; [8]) [µg/mL] | MIC (Candida albicans [3]; [9]) [µg/mL] | MIC (Candida albicans [3]; [10]) [µg/mL] | MIC (Candida albicans [3]; [11]) [µg/mL] | MIC (Candida albicans [3]; [12]) [µg/mL] | MIC (Candida albicans [3]; [13]) [µg/mL] | MIC (Candida albicans [3]; [14]) [µg/mL] | MIC (Candida albicans [3]; [15]) [µg/mL] | MIC (Candida albicans [3]; [16]) [µg/mL] | MIC (Candida albicans [3]; [17]) [µg/mL] | activity against one or more isolates of Cryptococcus neoformans and Candida albicans (Candida albicans [3]; summary in words) | MIC (Cryptococcus neoformans [4]; Cryptococcus neoformans SA1) [µg/mL] | MIC (Cryptococcus neoformans [4]; Cryptococcus neoformans SA2) [µg/mL] | MIC (Candida albicans [5]; C. albicans SA3) [µg/mL] | also measured |
| --- | --- | --- | --- | --- | --- | --- | --- | --- | --- | --- | --- | --- | --- | --- | --- | --- | --- | --- | --- | --- | --- |
| Cl.N=C(NN=Cc1cccc(F)c1)NN=Cc1cccc(F)c1 [NCL023] | 32 | 32 | 16 | 16 | 32 | 32 | 16 | >16 | 16 | 16 | 8 | >16 | >16 | 16 | 16 | 16 | highly active | 16 | 16 | 32 | antifungal activity against the two isolates of Candida albicans (Candida albicans [1]): high antifungal activity; MIC (Candida albicans [5]; Candida albicans ATCC 90028): 32 µg/mL; MIC (Cryptococcus neoformans [6]; Cryptococcus neoformans SA1): 16 µg/mL; MIC (Cryptococcus neoformans [6]; Cryptococcus neoformans SA2): 16 µg/mL; MIC (Cryptococcus neoformans [6]; [18]): 8 µg/mL; MIC (Cryptococcus neoformans [6]; [19]): 8 µg/mL; MIC (Cryptococcus neoformans [6]; [20]): 8 µg/mL; MIC (Cryptococcus neoformans [6]; [21]): 8 µg/mL; MIC (Cryptococcus neoformans [6]; [22]): 8 µg/mL; MIC (C. gattii; [23]): 8 µg/mL; MIC (C. gattii; [24]): 8 µg/mL; MIC (C. gattii; [25]): 16 µg/mL; MIC (C. gattii; [26]): 16 µg/mL; MIC (C. gattii; [27]): 8 µg/mL; MIC [7]: 8 µg/mL and 16 µg/mL; Screen at 16 μg/mL [7]: No growth |
| Cl.N#Cc1ccc(C=NNC(=N)NN=Cc2ccc(C#N)cc2)cc1 [NCL024] | >32 | >32 | >32 | 32 | >32 | >32 | 8 | 4 | 16 | >16 | 8 | >16 | >16 | 4 | 16 | >16 | highly active | >32 | 32 | >32 | MIC (Candida albicans [5]; Candida albicans ATCC 90028): >32 µg/mL; MIC (Cryptococcus neoformans [6]; Cryptococcus neoformans SA1): >32 µg/mL; MIC (Cryptococcus neoformans [6]; Cryptococcus neoformans SA2): 32 µg/mL; MIC (Cryptococcus neoformans [6]; [18]): 32 µg/mL; MIC (Cryptococcus neoformans [6]; [19]): 32 µg/mL; MIC (Cryptococcus neoformans [6]; [20]): 16 µg/mL; MIC (Cryptococcus neoformans [6]; [21]): 32 µg/mL; MIC (Cryptococcus neoformans [6]; [22]): 32 µg/mL; MIC (C. gattii; [23]): 32 µg/mL; MIC (C. gattii; [24]): 16 µg/mL; MIC (C. gattii; [25]): 8 µg/mL; MIC (C. gattii; [26]): 32 µg/mL; MIC (C. gattii; [27]): 32 µg/mL; Screen at 16 μg/mL [7]: Growth |
| Cl.N=C(NN=Cc1cc(O)c(O)c(O)c1)NN=Cc1cc(O)c(O)c(O)c1 [NCL097] | 32 | 8 | 16 | 16 | 8 | 32 | 8 | 8 | 4 | 8 | 4 to 8 | 8 | 8 | 4 | 8 to 16 | 8 | highly active | 16 | 16 | 8 | antifungal activity against the two isolates of Candida albicans (Candida albicans [1]): high antifungal activity; activity against all tested isolates of Cryptococcus neoformans and Candida albicans (Candida albicans [3]; summary in words): active; MIC (Candida albicans [5]; Candida albicans ATCC 90028): 32 µg/mL; MIC (Cryptococcus neoformans [6]; Cryptococcus neoformans SA1): 16 µg/mL; MIC (Cryptococcus neoformans [6]; Cryptococcus neoformans SA2): 16 µg/mL; MIC (Cryptococcus neoformans [6]; human clinical isolate C. neoformans serotype A/D hybrid, listed as NCL97): 16 µg/mL and 32 µg/mL; MIC (Cryptococcus neoformans [6]; [19]): 16 to 32 µg/mL; MIC (Cryptococcus neoformans [6]; [20]): 32 µg/mL; MIC (Cryptococcus neoformans [6]; [21]): 32 µg/mL; MIC (Cryptococcus neoformans [6]; [22]): 32 µg/mL; MIC (C. gattii; [23]): 32 µg/mL; MIC (C. gattii; [24]): 16 µg/mL; MIC (C. gattii; [25]): 16 µg/mL; MIC (C. gattii; [26]): 32 µg/mL; MIC (C. gattii; [27]): 32 µg/mL; MIC [7]: 0.5 µg/mL; Screen at 16 μg/mL [7]: No growth |
| CN(C)c1ccc(/C=N/NC(=N)N/N=C/c2ccc(N(C)C)cc2)cc1.Cl [NCL113] | >32 | >32 | 4 | 4 | >32 | >32 | 8 | 8 to 16 | 8 | 8 | 8 | 16 | 16 | 8 | 8 | 8 | highly active | 4 | 4 | >32 | MIC (Candida albicans [5]; Candida albicans ATCC 90028): >32 µg/mL; MIC (Cryptococcus neoformans [6]; Cryptococcus neoformans SA1): 4 µg/mL; MIC (Cryptococcus neoformans [6]; Cryptococcus neoformans SA2): 4 µg/mL; MIC (Cryptococcus neoformans [6]; [18]): 4 µg/mL; MIC (Cryptococcus neoformans [6]; [19]): 4 µg/mL; MIC (Cryptococcus neoformans [6]; [20]): 4 µg/mL; MIC (Cryptococcus neoformans [6]; [21]): 4 µg/mL; MIC (Cryptococcus neoformans [6]; [22]): 4 µg/mL; MIC (C. gattii; [23]): 4 µg/mL; MIC (C. gattii; [24]): 2 to 4 µg/mL; MIC (C. gattii; [25]): 4 µg/mL; MIC (C. gattii; [26]): 4 to 8 µg/mL; MIC (C. gattii; [27]): 2 to 4 µg/mL; MIC [7]: 4 µg/mL and 8 µg/mL; Screen at 16 μg/mL [7]: No growth |
| COc1ccc(C=NNC(=N)NN=Cc2ccc(OC)c(OC)c2)cc1OC.Cl [NCL115] | >32 | >32 | 8 | 8 | >32 | >32 | >16 | 8 | >16 | >16 | >16 | >16 | >16 | >16 | >16 | >16 | highly active | 8 | 8 | >32 | MIC (Candida albicans [5]; Candida albicans ATCC 90028): >32 µg/mL; MIC (Cryptococcus neoformans [6]; Cryptococcus neoformans SA1): 8 µg/mL; MIC (Cryptococcus neoformans [6]; Cryptococcus neoformans SA2): 8 µg/mL; MIC (Cryptococcus neoformans [6]; [18]): >32 µg/mL; MIC (Cryptococcus neoformans [6]; [19]): >32 µg/mL; MIC (Cryptococcus neoformans [6]; [20]): >32 µg/mL; MIC (Cryptococcus neoformans [6]; [21]): >32 µg/mL; MIC (Cryptococcus neoformans [6]; [22]): >32 µg/mL; MIC (C. gattii; [23]): >32 µg/mL; MIC (C. gattii; [24]): >32 µg/mL; MIC (C. gattii; [25]): >32 µg/mL; MIC (C. gattii; [26]): >32 µg/mL; MIC (C. gattii; [27]): >32 µg/mL; Screen at 16 μg/mL [7]: Growth |
